According to ChEMBL document CHEMBL1201862, “PubChem BioAssay data set” (2004):
Calls of active or inactive are those of the source.

How the values were obtained:
[1] = target: Aryl hydrocarbon receptor (Homo sapiens, UniProt P35869); assay: Luminescence-based cell-based high throughput dose response assay for activators of the Aryl Hydrocarbon Receptor (AHR). [Related pubchem assays: 2796 (Primary screen (AHR activators in singlicate)), 2845 (Confirmation screen (AHR activators in triplicate)), 434939 (Counterscreen (PXR activators in triplicate)), 2804 (Summary (AHR activators))]; format: ADME
[2] = target: Glyceraldehyde-3-phosphate dehydrogenase (Homo sapiens, UniProt P04406)
Estrogen receptor beta = Estrogen receptor beta (Homo sapiens, UniProt Q92731); assay: blockers of SRC-3 recruitment to ERβ – biochemical, ELISA, streptavidin-HRP readout, orthogonal assay, confirmation (AID 1060)
[3] = target: T1, Induced myeloid leukemia cell differentiation protein Mcl-1 (Homo sapiens, UniProt Q07820); format: functional
[4] = target: T2, Tyrosine-protein phosphatase non-receptor type 7 (Homo sapiens, UniProt P35236); assay: redox-active compounds inhibiting HePTP phosphatase – biochemical, fluorescence, mechanism study (AID 2068); format: functional
T2 sequence (P35236 whole entry): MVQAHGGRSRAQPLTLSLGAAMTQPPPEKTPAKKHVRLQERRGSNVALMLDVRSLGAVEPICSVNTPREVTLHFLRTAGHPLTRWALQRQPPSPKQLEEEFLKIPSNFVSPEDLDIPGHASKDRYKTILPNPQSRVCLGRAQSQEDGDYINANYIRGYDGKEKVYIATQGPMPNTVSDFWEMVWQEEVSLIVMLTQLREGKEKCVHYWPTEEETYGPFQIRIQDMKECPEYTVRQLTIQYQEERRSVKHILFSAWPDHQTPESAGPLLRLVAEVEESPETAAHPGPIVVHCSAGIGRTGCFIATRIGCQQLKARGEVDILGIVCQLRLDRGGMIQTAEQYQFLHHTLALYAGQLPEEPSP

[5] = target: Dual specificity protein phosphatase 3 (Homo sapiens, UniProt P51452); assay: SAR VHR1 Fluorescent Assay for In Vitro dose response studies. [Related pubchem assays (depositor defined):AID1654, AID1661, AID1878, AID1992, AID2004, AID2070, AID2085]; format: functional
Genome polyprotein = Genome polyprotein (dengue virus type 2, UniProt P29990); assay: flavivirus cap methylation enzyme inhibition – biochemical, confirmation dose response, primary screen (AID 588689); format: functional
[6] = target: T3, Dual specificity protein phosphatase 6 (Rattus norvegicus, UniProt Q64346); format: functional
T3 sequence (Q64346 whole entry): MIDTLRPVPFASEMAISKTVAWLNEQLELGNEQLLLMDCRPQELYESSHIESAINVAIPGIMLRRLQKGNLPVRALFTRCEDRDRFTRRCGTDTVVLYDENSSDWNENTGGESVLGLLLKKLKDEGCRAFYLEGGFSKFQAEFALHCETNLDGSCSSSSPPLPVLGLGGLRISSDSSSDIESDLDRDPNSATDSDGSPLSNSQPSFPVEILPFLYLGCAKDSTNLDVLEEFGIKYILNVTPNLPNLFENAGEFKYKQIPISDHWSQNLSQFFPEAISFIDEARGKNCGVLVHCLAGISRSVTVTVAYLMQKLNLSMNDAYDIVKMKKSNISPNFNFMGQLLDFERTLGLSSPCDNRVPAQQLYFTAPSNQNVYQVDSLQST

[7] = target: T3, Dual specificity protein phosphatase 6
[8] = target: T2, Tyrosine-protein phosphatase non-receptor type 7; format: functional
Bcl-2-like protein 10 = target: T4, Bcl-2-like protein 10 (Homo sapiens, UniProt Q9HD36); assay: Bcl-B/TR3 peptide binding disruption – biochemical, fluorescence polarization, FITC-TR3 peptide, selectivity assay for Bfl-1 inhibitor project, primary screen (AID 748);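 further: fluorescence polarization from a fluorescein-labelled TR3 peptide binding purified Bcl-B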
T4 sequence (Q9HD36 whole entry): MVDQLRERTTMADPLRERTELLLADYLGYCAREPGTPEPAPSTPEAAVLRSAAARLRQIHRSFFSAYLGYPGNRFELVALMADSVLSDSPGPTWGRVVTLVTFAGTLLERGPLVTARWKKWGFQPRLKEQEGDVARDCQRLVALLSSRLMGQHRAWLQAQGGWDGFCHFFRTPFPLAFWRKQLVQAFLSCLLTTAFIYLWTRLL

[9] = target: T1, Induced myeloid leukemia cell differentiation protein Mcl-1; assay: blockers of MCL1 binding to BIM peptide – biochemical, fluorescence polarization, BIM-BH3 peptide, 1536-well, dose response (AID 2217)
SUMO-activating enzyme [10] = target: T5, SUMO-activating enzyme (Homo sapiens, UniProt Q9UBT2); assay: blockers of SAE1/SAE2–UBC9 SUMO transfer – biochemical, HTRF, uHTS, primary screen (AID 2006); format: protein-complex assay
SUMO-activating enzyme [11] = target: T5, SUMO-activating enzyme; assay: blockers of UBC9-mediated SUMO conjugation – biochemical, AlphaScreen, SUMOylation inhibitor project, confirmation (AID 2018); format: functional
Bcl-2-like protein 1 = Bcl-2-like protein 1 (Homo sapiens, UniProt Q07817); assay: blockers of BCLXL peptide binding – biochemical, fluorescence polarization, 1536-well, selectivity assay for MCL1 inhibitor project, dose response (AID 2218)
Bcl-2-related protein A1 [12] = target: T6, Bcl-2-related protein A1 (Mus musculus, UniProt Q07440); assay: small-molecule antagonists of Bfl-1/BH3 interaction – biochemical, TR-FRET, mouse Bfl-1, confirmation (AID 621);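 further: TR-FRET binding of GST-Bfl-1 to FITC-labelled Bid peptide via terbium antibody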
T6 sequence (Q07440 whole entry): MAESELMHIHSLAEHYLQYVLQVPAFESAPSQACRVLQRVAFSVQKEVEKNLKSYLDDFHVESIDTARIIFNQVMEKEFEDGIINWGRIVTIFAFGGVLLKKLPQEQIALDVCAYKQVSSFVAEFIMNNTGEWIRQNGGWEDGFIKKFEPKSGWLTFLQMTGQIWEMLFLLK

Bcl-2-related protein A1 [13] = target: T6, Bcl-2-related protein A1; assay: Bfl-1 binding inhibitors, SAR follow-up, biochemical, fluorescence polarization (AID 1070)
[14] = target: Sphingosine 1-phosphate receptor 2 (Homo sapiens, UniProt O95136); assay: Dose Response Cell Based Assay for Antagonists of the S1P2 Receptor. [Related pubchem assays: 856, 736 ]; format: functional
[15] = target: Mitogen-activated protein kinase 10 (Homo sapiens, UniProt P53779); assay: Dose response biochemical screening assay for inhibitors of c-Jun N-Terminal Kinase 3 (JNK3). [Related pubchem assays: 746 ]
[16] = Luminescence Cell-Based Dose Confirmation HTS to Identify Inhibitors of Platelet Dense Granule Release. [Related pubchem assays: 1663 (Primary HTS), 1678 (Summary of Project)]; format: functional
[17] = target: Luciferin 4-monooxygenase (Photinus pyralis, UniProt P08659); assay: inhibition of purified Photinus pyralis luciferase – biochemical, luminescence, dose response (AID 1891)
[18] = target: E3 ubiquitin-protein ligase Mdm2 (Homo sapiens, UniProt Q00987); assay: MDM2-luc reporter signal enhancers, multi-concentration potency testing, MDM2 ubiquitin-protein ligase inhibitor program, whole-cell format, luminescence detection, 384-well microplate (AID 1394); format: functional;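 further: MDM2 E3 inhibitors raise luminescence so EC50 is for signal enhancement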

Chain of Glyceraldehyde-3-phosphate dehydrogenase (P04406 whole entry): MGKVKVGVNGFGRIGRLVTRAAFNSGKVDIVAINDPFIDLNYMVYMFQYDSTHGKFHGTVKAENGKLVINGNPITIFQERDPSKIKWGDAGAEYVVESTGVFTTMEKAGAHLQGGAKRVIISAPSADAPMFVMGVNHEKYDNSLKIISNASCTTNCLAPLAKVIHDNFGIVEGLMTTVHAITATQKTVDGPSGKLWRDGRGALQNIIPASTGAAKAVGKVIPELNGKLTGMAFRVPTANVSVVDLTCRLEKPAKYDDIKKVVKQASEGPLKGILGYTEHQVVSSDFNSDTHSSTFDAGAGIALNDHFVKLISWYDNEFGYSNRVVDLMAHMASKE
T1 sequence (Q07820 whole entry): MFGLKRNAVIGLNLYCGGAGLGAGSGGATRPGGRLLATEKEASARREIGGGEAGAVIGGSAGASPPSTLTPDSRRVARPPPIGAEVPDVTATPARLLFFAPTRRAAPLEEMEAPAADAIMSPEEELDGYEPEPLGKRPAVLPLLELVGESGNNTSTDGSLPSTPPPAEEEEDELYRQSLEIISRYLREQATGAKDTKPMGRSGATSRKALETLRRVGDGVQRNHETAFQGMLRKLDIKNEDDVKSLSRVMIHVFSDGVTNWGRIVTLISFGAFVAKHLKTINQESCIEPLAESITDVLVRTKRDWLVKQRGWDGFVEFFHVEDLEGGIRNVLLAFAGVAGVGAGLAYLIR
T5 sequence (Q9UBE0 whole entry): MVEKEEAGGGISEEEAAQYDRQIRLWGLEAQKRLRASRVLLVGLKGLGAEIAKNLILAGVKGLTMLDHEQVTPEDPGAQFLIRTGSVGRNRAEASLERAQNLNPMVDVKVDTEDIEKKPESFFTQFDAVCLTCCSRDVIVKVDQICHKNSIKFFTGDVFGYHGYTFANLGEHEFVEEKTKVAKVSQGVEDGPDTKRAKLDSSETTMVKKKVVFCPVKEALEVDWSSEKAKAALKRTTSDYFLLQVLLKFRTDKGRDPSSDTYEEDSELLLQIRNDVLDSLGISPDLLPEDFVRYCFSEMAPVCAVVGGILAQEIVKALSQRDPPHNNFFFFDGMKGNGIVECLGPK
T5 sequence (Q9UBT2 whole entry): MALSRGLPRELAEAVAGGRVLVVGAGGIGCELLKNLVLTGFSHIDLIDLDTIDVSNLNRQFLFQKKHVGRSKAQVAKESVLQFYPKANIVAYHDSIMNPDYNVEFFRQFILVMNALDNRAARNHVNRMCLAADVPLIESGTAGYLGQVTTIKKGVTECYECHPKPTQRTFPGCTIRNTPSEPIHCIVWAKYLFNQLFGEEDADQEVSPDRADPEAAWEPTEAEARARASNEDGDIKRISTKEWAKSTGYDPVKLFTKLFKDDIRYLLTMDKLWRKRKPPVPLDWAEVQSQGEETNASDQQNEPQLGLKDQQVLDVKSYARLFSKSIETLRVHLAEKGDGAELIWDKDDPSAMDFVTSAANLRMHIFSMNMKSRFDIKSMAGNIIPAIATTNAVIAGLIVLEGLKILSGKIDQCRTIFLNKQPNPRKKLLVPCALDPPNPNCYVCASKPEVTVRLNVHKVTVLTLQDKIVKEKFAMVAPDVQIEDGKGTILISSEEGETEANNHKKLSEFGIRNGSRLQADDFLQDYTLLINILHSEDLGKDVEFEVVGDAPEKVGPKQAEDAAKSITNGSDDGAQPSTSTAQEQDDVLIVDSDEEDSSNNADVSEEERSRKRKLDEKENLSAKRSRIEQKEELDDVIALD
Chain of Mitogen-activated protein kinase 10 (P53779 whole entry): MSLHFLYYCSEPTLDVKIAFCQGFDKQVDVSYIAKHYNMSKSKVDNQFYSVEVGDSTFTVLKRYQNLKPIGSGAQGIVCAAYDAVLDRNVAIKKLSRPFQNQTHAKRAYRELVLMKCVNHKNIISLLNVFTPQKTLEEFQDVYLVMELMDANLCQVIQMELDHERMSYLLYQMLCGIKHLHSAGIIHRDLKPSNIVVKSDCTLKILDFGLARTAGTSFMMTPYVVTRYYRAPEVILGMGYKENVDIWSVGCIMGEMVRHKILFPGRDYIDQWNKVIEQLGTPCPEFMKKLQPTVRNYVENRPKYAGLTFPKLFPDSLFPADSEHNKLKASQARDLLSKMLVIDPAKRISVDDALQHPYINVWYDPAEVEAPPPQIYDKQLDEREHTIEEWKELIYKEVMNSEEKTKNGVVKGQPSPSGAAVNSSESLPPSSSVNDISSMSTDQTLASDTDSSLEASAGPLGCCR
Chain of Luciferin 4-monooxygenase (P08659 whole entry): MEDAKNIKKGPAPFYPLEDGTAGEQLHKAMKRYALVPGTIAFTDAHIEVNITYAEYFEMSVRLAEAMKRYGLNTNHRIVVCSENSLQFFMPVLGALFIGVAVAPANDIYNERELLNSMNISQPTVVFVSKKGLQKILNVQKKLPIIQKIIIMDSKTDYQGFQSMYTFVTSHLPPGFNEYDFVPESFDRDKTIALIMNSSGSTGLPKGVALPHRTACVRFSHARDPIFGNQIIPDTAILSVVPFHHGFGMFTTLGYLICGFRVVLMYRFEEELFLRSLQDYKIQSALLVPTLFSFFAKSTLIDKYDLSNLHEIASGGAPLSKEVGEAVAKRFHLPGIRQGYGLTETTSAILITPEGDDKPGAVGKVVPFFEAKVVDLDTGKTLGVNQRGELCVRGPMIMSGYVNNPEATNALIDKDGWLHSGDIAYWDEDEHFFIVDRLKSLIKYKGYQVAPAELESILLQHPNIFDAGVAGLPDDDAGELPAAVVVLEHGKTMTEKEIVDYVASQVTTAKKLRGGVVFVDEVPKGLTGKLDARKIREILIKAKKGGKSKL
Chain of Genome polyprotein (P29990 2492-3391 limits assumed): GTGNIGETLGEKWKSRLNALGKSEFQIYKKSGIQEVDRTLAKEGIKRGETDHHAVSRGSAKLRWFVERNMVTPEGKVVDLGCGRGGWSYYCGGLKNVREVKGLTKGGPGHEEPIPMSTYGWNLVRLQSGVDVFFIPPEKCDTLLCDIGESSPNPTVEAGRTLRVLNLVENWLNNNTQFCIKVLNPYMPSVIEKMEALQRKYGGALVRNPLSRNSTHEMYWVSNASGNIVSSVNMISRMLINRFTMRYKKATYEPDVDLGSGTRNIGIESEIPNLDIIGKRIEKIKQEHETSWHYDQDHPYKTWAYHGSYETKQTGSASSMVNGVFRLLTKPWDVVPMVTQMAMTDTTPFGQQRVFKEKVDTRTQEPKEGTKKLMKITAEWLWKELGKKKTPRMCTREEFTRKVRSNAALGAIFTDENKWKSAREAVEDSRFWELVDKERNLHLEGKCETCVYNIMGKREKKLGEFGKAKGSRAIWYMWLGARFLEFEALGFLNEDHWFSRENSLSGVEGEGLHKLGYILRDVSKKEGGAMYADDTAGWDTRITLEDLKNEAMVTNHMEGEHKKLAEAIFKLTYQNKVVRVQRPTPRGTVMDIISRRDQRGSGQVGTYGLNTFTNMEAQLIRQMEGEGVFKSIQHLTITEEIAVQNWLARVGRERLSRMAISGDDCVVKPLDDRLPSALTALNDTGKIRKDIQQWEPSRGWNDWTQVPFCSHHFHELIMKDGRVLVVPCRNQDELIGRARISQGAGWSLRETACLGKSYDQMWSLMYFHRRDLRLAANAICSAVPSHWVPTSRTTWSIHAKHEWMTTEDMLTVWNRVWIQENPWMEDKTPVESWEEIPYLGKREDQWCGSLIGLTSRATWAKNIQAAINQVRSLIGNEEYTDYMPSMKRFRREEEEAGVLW
Chain of Sphingosine 1-phosphate receptor 2 (O95136 whole entry): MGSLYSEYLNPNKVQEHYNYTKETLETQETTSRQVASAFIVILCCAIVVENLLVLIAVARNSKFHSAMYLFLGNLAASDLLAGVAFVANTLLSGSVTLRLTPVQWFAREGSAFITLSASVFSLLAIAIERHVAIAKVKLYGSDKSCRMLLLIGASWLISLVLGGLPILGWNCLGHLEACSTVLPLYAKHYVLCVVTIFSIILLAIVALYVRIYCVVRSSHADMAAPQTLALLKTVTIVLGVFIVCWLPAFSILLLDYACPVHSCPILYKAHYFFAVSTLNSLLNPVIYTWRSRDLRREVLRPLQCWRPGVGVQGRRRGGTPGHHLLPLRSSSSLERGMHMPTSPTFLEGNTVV
Chain of Dual specificity protein phosphatase 3 (P51452 whole entry): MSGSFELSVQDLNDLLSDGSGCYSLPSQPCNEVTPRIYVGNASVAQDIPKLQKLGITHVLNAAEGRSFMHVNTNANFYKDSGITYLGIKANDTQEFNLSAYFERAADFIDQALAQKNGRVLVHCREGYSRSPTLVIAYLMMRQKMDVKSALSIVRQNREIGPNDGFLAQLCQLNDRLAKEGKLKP
Chain of Aryl hydrocarbon receptor (P35869 whole entry): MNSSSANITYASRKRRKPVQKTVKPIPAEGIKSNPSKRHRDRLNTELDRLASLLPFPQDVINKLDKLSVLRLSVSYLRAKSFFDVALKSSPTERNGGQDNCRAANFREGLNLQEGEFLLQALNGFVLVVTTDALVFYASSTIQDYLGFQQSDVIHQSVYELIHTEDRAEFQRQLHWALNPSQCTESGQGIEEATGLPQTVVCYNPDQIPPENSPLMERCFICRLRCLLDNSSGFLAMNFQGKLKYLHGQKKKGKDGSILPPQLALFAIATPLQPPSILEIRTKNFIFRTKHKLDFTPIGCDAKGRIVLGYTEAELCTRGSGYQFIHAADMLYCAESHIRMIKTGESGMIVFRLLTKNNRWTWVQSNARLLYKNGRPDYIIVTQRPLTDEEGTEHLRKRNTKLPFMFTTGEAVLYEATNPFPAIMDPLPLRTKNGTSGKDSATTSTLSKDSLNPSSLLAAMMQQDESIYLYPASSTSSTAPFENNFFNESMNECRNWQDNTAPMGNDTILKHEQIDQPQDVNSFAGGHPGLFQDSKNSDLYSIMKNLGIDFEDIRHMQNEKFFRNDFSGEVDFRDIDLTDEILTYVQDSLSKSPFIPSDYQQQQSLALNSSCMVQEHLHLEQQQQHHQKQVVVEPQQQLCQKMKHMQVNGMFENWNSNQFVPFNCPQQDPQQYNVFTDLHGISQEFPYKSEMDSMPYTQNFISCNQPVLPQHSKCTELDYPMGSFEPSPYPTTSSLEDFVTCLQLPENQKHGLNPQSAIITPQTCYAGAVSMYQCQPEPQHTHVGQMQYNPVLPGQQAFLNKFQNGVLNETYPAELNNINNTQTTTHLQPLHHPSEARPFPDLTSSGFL

In the case of `CCC(=O)Nc1cc(OC)c(NC(=O)c2ccccc2)cc1OC`, the EC50 [1] is reported as 1.85 µM (active).
In the case of `CSc1nnc(-c2ccco2)c(-c2ccco2)n1`, the IC50 [2] is reported as 99.1 µM (active), the IC50 (Estrogen receptor beta) is reported as > 50 µM (not active) and the IC50 [3] is reported as 8.02 µM (active). The IC50 [4] was 1.04 µM (active), the IC50 [5] was 29.5 µM (active) and the IC50 (Genome polyprotein) was 86.8 µM (active). For the same compound, the IC50 [6] was 99.7 µM (active), the IC50 [7] was 80.4 µM (active) and the IC50 [8] was 41.5 µM (active). For the same compound, the IC50 (Bcl-2-like protein 10) was 19.4 µM (active), the IC50 [9] was 13.2 µM (not active) and the IC50 (SUMO-activating enzyme [10]) was 15.2 µM (active). The IC50 (SUMO-activating enzyme [11]) was 2.91 µM (active) and the IC50 (Bcl-2-like protein 1) was > 109 µM (not active).
With `Cc1cccc(N2CCN(C3=C(Cl)C(=O)N(c4ccc(Cl)c(Cl)c4)C3=O)CC2)c1C` the IC50 [2] was > 100 µM (not active), the IC50 (Bcl-2-related protein A1 [12]) was > 100 µM (not active) and the IC50 (Bcl-2-related protein A1 [13]) was > 100 µM (not active).
With `O=C(Nc1ccc(F)cc1)c1cccs1` the IC50 [14] was > 30 µM (not active).
For `C/C(NC1CCCC1)=C(/C#N)C(N)=O`, the IC50 [15] was 33.3 µM (not active).
With `Cc1nnc(SCCN2CCOCC2)c2nn(-c3ccccc3F)c(C)c12` the EC50 [16] was > 112 µM (not active), the EC50 [17] was > 112 µM (not active) and the EC50 [18] was 2.43 µM (not active).
